The record followed here is patent publication US11351178B2, “Selective HDAC6 inhibitors” (ITALFARMACO S.P.A., priority 2017, dated 2022).

Like-named read-outs stand apart in the source and are kept apart here.

The IC50 is the concentration that gives 50% inhibition.

For one series, the target named is T1, HDAC1 (Homo sapiens, UniProt Q13547).
T1 construct: purchased BPS 50051
Nature of the series: Enzymatic test HDAC1. Format: biochemical. The note with it: Table 3.

Series [1] in a line: Stability to Phase I metabolism in rat S9 liver fraction. The note with it: after 90 min, 37° C. In kind it is in vitro ADME. In short, it runs like this:
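Phase I stability in human and rat hepatic S9 at 37 °C, sampled up to 90 min. Samples were stopped with acidified acetonitrile on ice, then quantified by HPLC-UV or LC-MS/MS.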

Another series deals with T2, HDAC7 (Homo sapiens, UniProt Q8WUI4).
T2 construct: purchased BPS 50007
T2 sequence (Q8WUI4 518-952 limits assumed): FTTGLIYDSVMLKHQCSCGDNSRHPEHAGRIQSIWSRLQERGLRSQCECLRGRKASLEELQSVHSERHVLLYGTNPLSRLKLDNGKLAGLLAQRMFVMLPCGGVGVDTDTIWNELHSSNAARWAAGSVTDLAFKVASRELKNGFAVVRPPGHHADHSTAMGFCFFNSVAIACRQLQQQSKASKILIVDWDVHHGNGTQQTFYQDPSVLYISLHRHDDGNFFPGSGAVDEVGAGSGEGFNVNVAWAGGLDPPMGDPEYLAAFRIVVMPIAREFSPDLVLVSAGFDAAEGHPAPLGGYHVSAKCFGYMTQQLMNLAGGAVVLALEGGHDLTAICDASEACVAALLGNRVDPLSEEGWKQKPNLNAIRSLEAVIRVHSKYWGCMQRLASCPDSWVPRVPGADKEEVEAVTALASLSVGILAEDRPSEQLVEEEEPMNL
The series can be described thus: Enzymatic test HDAC7. The note with it: Table 3. In kind it is biochemical. Here is the method: (§1) After a period of incubation at 30° C. (incubation times vary for different isoforms and are shown in table 1) 25 μL of solution containing the substrate were added. As substrate, FLUOR DE LYS® deacetylase substrate (Enzo Life Sciences, cat #BML-K1104, FdL), FLUOR DE LYS®-Green substrate (Enzo Life Sciences, cat #BML-K1572 FdL_G) and trifluoroacetyl-L-lysine (Tfal)-2× concentrated solution in 25 mM Tris-HCl, pH 8, 130 mM NaCl 0.05% Tween-20 10% glycerol) were used. Following a reaction period at 30° C.

A short description of a further series: Stability in rat plasma. Format: in vitro ADME. The note with it: after 4 hours, 37° C. In outline:
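Compounds incubated at 37° C in rat or human plasma at 50 μM (UV/HPLC) or 1 or 2 μM (LC-MS/MS) for 0–4 h. Reaction stopped with acidified acetonitrile on ice; percent remaining versus initial amount and plasma half-life calculated.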

Another series addresses T3, recombinant human HDAC6 (Homo sapiens, UniProt Q9UBN7).
T3 sequence (Q9UBN7 1-1215): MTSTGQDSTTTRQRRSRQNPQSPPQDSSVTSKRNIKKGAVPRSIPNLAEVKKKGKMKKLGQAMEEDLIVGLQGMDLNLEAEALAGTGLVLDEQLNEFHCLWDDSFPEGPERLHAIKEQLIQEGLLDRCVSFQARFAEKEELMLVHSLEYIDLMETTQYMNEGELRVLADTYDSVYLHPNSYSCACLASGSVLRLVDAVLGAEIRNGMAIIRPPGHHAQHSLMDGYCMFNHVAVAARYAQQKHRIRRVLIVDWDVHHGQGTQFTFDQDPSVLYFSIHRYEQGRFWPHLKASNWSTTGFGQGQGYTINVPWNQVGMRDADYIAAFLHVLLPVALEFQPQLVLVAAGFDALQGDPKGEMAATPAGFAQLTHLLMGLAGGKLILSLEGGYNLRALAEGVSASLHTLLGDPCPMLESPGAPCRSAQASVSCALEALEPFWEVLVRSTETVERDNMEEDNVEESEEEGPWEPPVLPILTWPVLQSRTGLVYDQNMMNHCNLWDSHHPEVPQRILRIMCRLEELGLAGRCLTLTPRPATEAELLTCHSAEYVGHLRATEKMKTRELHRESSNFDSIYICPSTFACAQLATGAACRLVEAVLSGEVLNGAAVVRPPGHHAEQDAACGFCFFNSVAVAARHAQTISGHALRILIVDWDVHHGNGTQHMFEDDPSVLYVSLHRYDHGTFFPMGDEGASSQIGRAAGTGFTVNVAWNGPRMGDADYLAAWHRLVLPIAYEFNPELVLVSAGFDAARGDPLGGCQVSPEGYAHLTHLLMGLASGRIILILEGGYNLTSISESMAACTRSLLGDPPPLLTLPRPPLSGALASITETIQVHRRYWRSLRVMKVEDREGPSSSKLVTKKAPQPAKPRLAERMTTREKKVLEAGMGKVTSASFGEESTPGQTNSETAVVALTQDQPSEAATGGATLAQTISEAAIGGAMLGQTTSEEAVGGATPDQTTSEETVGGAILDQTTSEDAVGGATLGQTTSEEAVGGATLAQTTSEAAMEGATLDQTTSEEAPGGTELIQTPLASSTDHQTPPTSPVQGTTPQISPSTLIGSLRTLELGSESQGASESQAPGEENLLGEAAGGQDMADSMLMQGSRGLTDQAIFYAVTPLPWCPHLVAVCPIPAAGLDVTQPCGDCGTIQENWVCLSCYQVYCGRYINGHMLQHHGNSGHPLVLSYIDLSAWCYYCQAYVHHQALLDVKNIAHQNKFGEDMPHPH
Nature of the series: Enzymatic screening on recombinant human HDAC6. In kind it is biochemical. The note with it: read-out: HDAC6 IC50. In short, it runs like this:
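Deacetylase activity of recombinant human isoforms is measured with FLUOR DE LYS, FLUOR DE LYS-Green or trifluoroacetyl-L-lysine substrates, supplied at 2× in 25 mM Tris-HCl, pH 8, 130 mM NaCl, 0.05% Tween-20, 10% glycerol. Both the enzyme-compound preincubation, of isoform-specific length, and the substrate reaction run at 30 °C.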

A further series deals with T4, HDAC5 (Homo sapiens, UniProt Q9UQL6).
T4 construct: purchased BPS 50005
The series can be described thus: Enzymatic test HDAC5. In kind it is biochemical. The note with it: Table 3. The protocol:
as §1

The next series has as its target T5, HDAC2 (Homo sapiens, UniProt Q92769).
T5 construct: purchased BPS 50002
The series can be described thus: Enzymatic test HDAC2. In kind it is biochemical. The note with it: Table 3.

T1 sequence (Q13547 whole entry): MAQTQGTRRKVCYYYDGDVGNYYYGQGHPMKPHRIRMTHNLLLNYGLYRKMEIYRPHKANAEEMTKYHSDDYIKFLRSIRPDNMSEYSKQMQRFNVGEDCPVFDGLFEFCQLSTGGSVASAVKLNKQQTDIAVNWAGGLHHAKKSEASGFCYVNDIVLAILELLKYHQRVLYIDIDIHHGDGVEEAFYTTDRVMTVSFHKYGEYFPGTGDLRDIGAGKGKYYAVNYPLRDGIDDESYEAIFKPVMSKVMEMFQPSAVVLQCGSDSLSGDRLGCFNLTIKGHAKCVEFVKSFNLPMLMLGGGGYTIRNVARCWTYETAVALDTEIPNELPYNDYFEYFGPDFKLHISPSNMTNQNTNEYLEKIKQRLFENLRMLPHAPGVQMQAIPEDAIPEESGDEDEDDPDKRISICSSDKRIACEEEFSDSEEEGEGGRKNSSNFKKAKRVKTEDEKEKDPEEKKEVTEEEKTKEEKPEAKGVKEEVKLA
T5 sequence (Q92769 whole entry): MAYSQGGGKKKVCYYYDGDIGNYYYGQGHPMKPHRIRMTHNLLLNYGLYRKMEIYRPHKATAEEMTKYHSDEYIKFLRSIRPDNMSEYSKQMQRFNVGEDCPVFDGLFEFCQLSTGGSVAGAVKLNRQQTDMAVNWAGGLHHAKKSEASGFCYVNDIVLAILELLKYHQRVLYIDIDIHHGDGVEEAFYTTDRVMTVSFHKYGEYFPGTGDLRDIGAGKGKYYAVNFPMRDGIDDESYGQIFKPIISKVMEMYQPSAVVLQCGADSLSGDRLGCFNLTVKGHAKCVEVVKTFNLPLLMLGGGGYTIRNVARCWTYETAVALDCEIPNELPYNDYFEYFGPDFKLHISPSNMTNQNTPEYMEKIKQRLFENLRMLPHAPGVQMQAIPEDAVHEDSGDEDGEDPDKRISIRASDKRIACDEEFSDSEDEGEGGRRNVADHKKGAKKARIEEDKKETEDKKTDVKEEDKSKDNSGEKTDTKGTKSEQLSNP
T4 sequence (Q9UQL6 656-1122 limits assumed): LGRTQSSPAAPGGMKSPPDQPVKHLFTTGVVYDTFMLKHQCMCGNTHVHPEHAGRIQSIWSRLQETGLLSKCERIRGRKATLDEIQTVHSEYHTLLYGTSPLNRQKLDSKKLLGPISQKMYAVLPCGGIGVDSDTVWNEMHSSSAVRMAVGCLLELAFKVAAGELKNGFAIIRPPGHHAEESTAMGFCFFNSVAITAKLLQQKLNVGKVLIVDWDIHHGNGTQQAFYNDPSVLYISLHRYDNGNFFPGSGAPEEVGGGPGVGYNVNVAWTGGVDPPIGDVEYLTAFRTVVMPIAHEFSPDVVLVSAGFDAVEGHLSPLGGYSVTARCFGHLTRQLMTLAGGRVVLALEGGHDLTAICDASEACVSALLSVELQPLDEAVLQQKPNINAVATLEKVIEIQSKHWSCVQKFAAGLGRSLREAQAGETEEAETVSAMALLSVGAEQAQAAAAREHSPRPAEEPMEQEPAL

For the compound `O=C(NO)c1cc(F)c(Cn2nnc(-c3scc4c3OCCO4)n2)c(F)c1` [comp. 79, 4-[[5-(2,3-dihydrothieno[3,4-b][1,4]dioxin-5-yl)tetrazol-2-yl]methyl]-3,5-difluoro-benzenecarbohydroxamic acid], the IC50 on HDAC1 worked out at 2320 nM; at HDAC7, 1310 nM; on recombinant human HDAC6 (Table 2), 8 nM; on recombinant human HDAC6 (Table 3) it was 8 nM; against HDAC5, 687 nM; against HDAC2, 6.75 µM. In series [1], the “residual percentage in rat S9 fraction” value turned out to be 73%. Moreover, in “Stability in rat plasma”, the “residual percentage in rat plasma” value is on record as 99%.
On to `Cn1c(Sc2c(F)cc(C(=O)NO)cc2F)nnc1-c1cccnn1` [comp. 179, 3,5-difluoro-4-[(4-methyl-5-pyridazin-3-yl-1,2,4-triazol-3-yl)sulfanyl]benzenecarbohydroxamic acid], for which the “residual percentage in rat S9 fraction” value in series [1] is listed as 58%. Besides, the “residual percentage in rat plasma” value in “Stability in rat plasma” is listed as 98%. For the same compound, the half-inhibitory concentration (IC50) on recombinant human HDAC6 (Table 2) was determined as 11 nM.
`O=C(NO)c1cc(F)c(Cn2nnc(-c3cccs3)n2)c(F)c1` [comp. 65, 3,5-difluoro-4-[[5-(2-thienyl)tetrazol-2-yl]methyl]benzenecarbohydroxamic acid]: the IC50 on HDAC1 was 2410 nM; against HDAC7, 1080 nM; on recombinant human HDAC6 (Table 2), 6 nM; on recombinant human HDAC6 (Table 3), 6 nM; on HDAC5, 1190 nM; against HDAC2 it was 17.7 µM. Further, the “residual percentage in rat S9 fraction” value in series [1] stood at 8%. Further, the “residual percentage in rat plasma” value in “Stability in rat plasma” is recorded as 88%.
With `Cn1c(Sc2c(F)cc(C(=O)NO)cc2F)nnc1-c1cccc(CN2CCCCCC2)c1` [comp. 167, 4-[[5-[3-(azepan-1-ylmethyl)phenyl]-4-methyl-1,2,4-triazol-3-yl]sulfanyl]-3,5-difluoro-benzenecarbohydroxamic acid], the “residual percentage in rat S9 fraction” value in series [1] was 55%. The “residual percentage in rat plasma” value in the series “Stability in rat plasma” was 85%. In addition, at recombinant human HDAC6 (Table 2), the IC50 amounted to 6 nM.
For the compound `COc1ccc(C(=O)N[C@@H](Cc2cscn2)c2nc(Cc3ccc(C(=O)NO)cc3)no2)cc1OC` [comp. 1, (S)—N-(1-(3-(4-(hydroxycarbamoyl)benzyl)-1,2,4-oxadiazol-5-yl)-2-(thiazol-4-yl)ethyl)-3,4-dimethoxybenzamide], the 50% inhibitory concentration (IC50) against HDAC1 came out at 1930 nM; on HDAC7 it was 3530 nM; on recombinant human HDAC6 (Table 2), 81 nM; at recombinant human HDAC6 (Table 3) it was 81 nM; against HDAC5, 12000 nM; at HDAC2, 6.66 µM. Also, the “residual percentage in rat S9 fraction” value in series [1] stood at 70%. The “residual percentage in rat plasma” value in “Stability in rat plasma” is 86%.
Turning to `Cn1c(Sc2c(F)cc(C(=O)NO)cc2F)nnc1-c1ccc(CN2CCCCCC2)cc1` [comp. 168, 4-[[5-[4-(azepan-1-ylmethyl)phenyl]-4-methyl-1,2,4-triazol-3-yl]sulfanyl]-3,5-difluoro-benzenecarbohydroxamic acid], at recombinant human HDAC6 (Table 2), the IC50 is 7 nM.
Regarding `O=C(NO)c1cc(F)c(Cc2nnc(-c3ccncc3)s2)c(F)c1` [compound 195, 3,5-difluoro-4-[[5-(4-pyridyl)-1,3,4-thiadiazol-2-yl]methyl]benzenecarbohydroxamic acid], in series [1], the “residual percentage in rat S9 fraction” value turned out to be 32%. For the same compound, in “Stability in rat plasma”, the “residual percentage in rat plasma” value is given as 84%. Also, on recombinant human HDAC6 (Table 2), the IC50 came out at 4 nM.
For the compound `O=C(NO)c1ccc(Cn2nnc(-c3cccs3)n2)cc1` [comp. 50, 4-[[5-(2-thienyl)tetrazol-2-yl]methyl]benzenecarbohydroxamic acid], the IC50 at HDAC1 was 254 nM; against HDAC7 it was 611 nM; on recombinant human HDAC6 (Table 2), 2 nM; on recombinant human HDAC6 (Table 3) it was 2 nM; at HDAC5, 1950 nM; against HDAC2 it was 0.958 µM.
Take `O=C(NO)c1cc(F)c(Cn2nnnc2-c2ncccn2)c(F)c1` [comp. 125, 3,5-difluoro-4-[(5-pyrimidin-2-yltetrazol-1-yl)methyl]benzenecarbohydroxamic acid]: the “residual percentage in rat S9 fraction” value in series [1] was determined as 90%. Further, in “Stability in rat plasma”, the “residual percentage in rat plasma” value is recorded as 78%. In addition, the IC50 on recombinant human HDAC6 (Table 2) worked out at 17 nM.
Consider `Nc1ccc(-c2nnn(Cc3c(F)cc(C(=O)NO)cc3F)n2)cc1` [comp. 171, 4-[[5-(4-aminophenyl)tetrazol-2-yl]methyl]-3,5-difluoro-benzenecarbohydroxamic acid], for which the “residual percentage in rat S9 fraction” value in series [1] turned out to be 48%. For the same compound, the “residual percentage in rat plasma” value in “Stability in rat plasma” was 77%. In addition, on recombinant human HDAC6 (Table 2), the 50% inhibitory concentration (IC50) was found to be 4 nM.
With `O=C(NO)c1ccc(Cn2nnnc2-c2cccs2)cc1` [comp. 8, N-hydroxy-4-((5-(thiophen-2-yl)-1H-tetrazol-1-yl)methyl)benzamide], in series [1], the “residual percentage in rat S9 fraction” value was found to be 82%. Besides, the “residual percentage in rat plasma” value in the series “Stability in rat plasma” came to 62%.
On to `O=C(NO)c1cc(F)c(Cn2nnnc2-c2cccs2)c(F)c1` [comp. 15, 3,5-difluoro-N-hydroxy-4-((5-(thiophen-2-yl)-1H-tetrazol-1-yl)methyl)benzamide], for which the IC50 at HDAC1 was found to be 7090 nM; at recombinant human HDAC6 (Table 2) it was 19 nM; at recombinant human HDAC6 (Table 3) it was 19 nM; against HDAC5, 706 nM; against HDAC2 it was 8.8 µM. In addition, in series [1], the “residual percentage in rat S9 fraction” value was found to be 60%. Besides, the “residual percentage in rat plasma” value in “Stability in rat plasma” is 78%.
As to `CN(C)c1cccc(-c2nnc(Sc3ccc(C(=O)NO)cc3)n2C)c1` [comp. 77, 4-[[5-[3-(dimethylamino)phenyl]-4-methyl-1,2,4-triazol-3-yl]sulfanyl]benzenecarbohydroxamic acid], the 50% inhibitory concentration (IC50) at HDAC1 came out at 581 nM; against HDAC7, 1360 nM; at recombinant human HDAC6 (Table 2), 17 nM; on recombinant human HDAC6 (Table 3) it was 17 nM; at HDAC5, 4470 nM; against HDAC2, 5.23 µM. In addition, in series [1], the “residual percentage in rat S9 fraction” value worked out at 40%.
Consider `Cn1c(Sc2c(F)cc(C(=O)NO)cc2F)nnc1-c1ncccc1F` [comp. 180, 3,5-difluoro-4-[[5-(3-fluoro-2-pyridyl)-4-methyl-1,2,4-triazol-3-yl]sulfanyl]benzenecarbohydroxamic acid], for which, in series [1], the “residual percentage in rat S9 fraction” value is recorded as 70%. The “residual percentage in rat plasma” value in the series “Stability in rat plasma” is recorded as 100%. The IC50 on recombinant human HDAC6 (Table 2) was 6 nM.
